Legend:
RAW264.7 cells = experiment: PGE2 production by macrophage RAW264.7, PGE2-EIA kit; format: cell-based, mouse; conditions: LPS + IFN-γ, 2 days, relative level versus control
From the text: RAW264.7 cells, a murine macrophage cell strain, were suspended in PRMI1640 medium supplied with 10% (v/v) fetal calf serum (hereinafter abbreviated as “FCS”) to give a cell suspension with a cell concentration of 1×10^6 cells/ml. […] The experimental system without the test samples described above was set as control. […] NO production, PGE2 production and macrophage growth are indicated as relative levels versus controls.

COX-2 = target: T1, COX-2 (Homo sapiens, UniProt P35354); experiment: COX Inhibitor Screening Assay Kit, COX-2; format: biochemical
T1 sequence (P35354 18-604): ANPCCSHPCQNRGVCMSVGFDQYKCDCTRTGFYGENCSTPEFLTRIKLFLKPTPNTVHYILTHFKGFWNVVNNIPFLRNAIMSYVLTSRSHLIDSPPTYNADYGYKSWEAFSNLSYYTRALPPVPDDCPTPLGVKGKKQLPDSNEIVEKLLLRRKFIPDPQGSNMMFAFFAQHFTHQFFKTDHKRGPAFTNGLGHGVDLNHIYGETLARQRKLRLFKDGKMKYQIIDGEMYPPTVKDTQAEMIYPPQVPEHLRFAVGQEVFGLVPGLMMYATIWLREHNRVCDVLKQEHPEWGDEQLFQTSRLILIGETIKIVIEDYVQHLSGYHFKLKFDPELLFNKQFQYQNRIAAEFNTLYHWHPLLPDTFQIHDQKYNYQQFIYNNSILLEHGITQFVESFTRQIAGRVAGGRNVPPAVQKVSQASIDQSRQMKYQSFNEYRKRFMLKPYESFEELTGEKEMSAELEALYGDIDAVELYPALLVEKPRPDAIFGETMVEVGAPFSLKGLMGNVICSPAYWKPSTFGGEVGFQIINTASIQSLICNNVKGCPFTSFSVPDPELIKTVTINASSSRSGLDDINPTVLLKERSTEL
From the text: Fifty percent inhibitory concentration (IC50) means the concentration of test sample necessary for inhibiting PGE2 synthesis by 50% compared to non-inhibitory control sample. It can be also determined by measuring the amount of PGE2 produced by adding test samples to cells having cyclooxygenase activity. COX-1/COX-2 ratio means the ratio of […], and the higher the ratio is, the more specific to COX-2 the agent is.
To verify the results of Experiment 2, it was investigated that whether the activity of COXs, essential enzymes for PGE2 synthesis system, can be inhibited. […] An experimental system without the test samples was set as control. The residual activity of COX-1 or COX-2 was determined as relative activity versus control.

β-hexosaminidase = experiment: Direct inhibition of β-hexosaminidase activity of whole granule extract; format: biochemical, rat; conditions: 40 μM added
Method: Separately, the whole granule extract described above was injected into a 96-well microplate by 50 μl per well. Each well was admixed with 50 μl of 0.1 M citrate buffer (pH 4.5) containing 1 mM PNAC and warmed at 37° C. for one hour. The reaction was stopped by adding 50 μl of 0.1 M sodium carbonate (pH 10.5), measuring the absorbance at 405 to 650 nm. As control, the same measurement as described above was carried out using BSA-containing Siraganian buffer alone. […] The resultant data was obtained by averaging the measurement values from 3 wells each of the test sample or the whole granule extract.

[1] = test system: Mouse melanoma cell line B16; experiment: Melanin synthesis in B16 cells; format: cell-based; conditions: 5 days, per mg protein versus control
Method: As control, a system with no test sample was provided. […] The amount of protein was measured by conventional Bradfordmethod and the amount of melanin per 1 mg of protein was calculated. The amount of melanin (%) was calculated according to Formula 4, and the living cell rate (%) was calculated according to Formula 5.
As control, a system with no test sample was provided. […] The amount of protein was measured by conventional Bradford method and the amount of melanin per 1 mg of protein was calculated. The amount of melanin (%) was calculated according to Formula 4.

[2] = test system: NHDF, normal fibroblast from human fetus; experiment: Collagen production by NHDF, Sircol Collagen Assay; format: cell-based; conditions: 6 days; for Collagen production (μg/well), AA-2G addition: 50 μM AA-2G; for Collagen production (μg/well), AA-2G free: no AA-2G
Method: NDHF cells (commercialized by Kurabo Industries Ltd. Osaka, Japan, catalog No. “KF-4001”) were suspended in D-MEM supplemented with 10 (v/v) % FCS to give a concentration of 5×10^5 cells/ml, and the suspension was sown in 96-well microplate by 50 μl per well. […] After cultured at 37° C. for a day, the supernatant was removed and any one of the samples and D-MEM medium supplemented with 10 (v/v) % FCS containing 100 μM AA-2G (a final concentration of 50 μM) or D-MEM medium supplemented with 10 (v/v) % FCS not containing AA-2G were added by 100 μl per well, and cultured at 37° C. for 3 days in 5 (v/v) % CO2 atmosphere. […] After the culture supernatant was removed, 1 M acetate solution containing 1 mg/ml of pepsin (commercialized by SIGMA, Inc.) was added by 50 μl per well and the plate was shaken at room temperature for 4 hours with a plate mixer for pepsin digestion. The digest was collected in a 1.5 ml-tube by pipetting, admixed with 200 μl per tube of Dye Reagent of Sircol Collagen Assay Kit (commercialized by Biocolor Ltd.), and allowed to react at room temperature for 30 minutes by inversely mixing. The supernatant of the reaction mixture was completely removed bycentrifugation (4° C., 15,000 rpm, 10 minutes), […] dissolved in 50 μl of 1 N NaOH, the resulting supernatant was measured for its absorbance at 560 nm to 650 nm. […] According to the standard curve, the amount of collagen in the pepsin digest of the cells was calculated.

[3] = read-out: residual activity of COX-2

Compound: Nc1cc2nc3ccccc3oc-2cc1=O [2-Aminophenoxazine-3-one, 2-aminophenoxazine-3-one]
- PGE2 production (%) (RAW264.7 cells; 0.16 μM): 76%
- PGE2 production (%) (RAW264.7 cells; 0.31 μM): 45%
- PGE2 production (%) (RAW264.7 cells; 0.63 μM): 13%
- PGE2 production (%) (RAW264.7 cells; 1.3 μM): 6%
- PGE2 production (%) (RAW264.7 cells; 2.5 μM): 1%
- PGE2 production (%) (RAW264.7 cells; 5.0 μM): 3%
- PGE2 production (%) (RAW264.7 cells; 10 μM): 2%
- IC50 (COX-2; PGE2 from arachidonic acid, read-out: IC50 COX-2): 4.83 µM
- COX-1/COX-2 ratio (COX-2; ratio of IC50 values of Table 2): about 1.3
- remaining activity at 1.9 µM (COX-2; [3]): 95%
- remaining activity at 3.8 µM (COX-2; [3]): 37%
- remaining activity at 7.6 µM (COX-2; [3]): 29%
- inhibition rate of β-hexosaminidase activity (β-hexosaminidase): −9.9%
- Amount of melanin (%) ([1]; 0.5 μM): 74%
- Amount of melanin (%) ([1]; 1 μM): 69%
- Amount of melanin (%) ([1]; 2 μM): 61%
- Collagen production (μg/well), AA-2G addition ([2]; QA 0.125 μM): 1.32 ± 0.45 μg/well
- Collagen production (μg/well), AA-2G free ([2]; QA 0.125 μM): 0.66 ± 0.05 μg/well
- Collagen production (μg/well), AA-2G addition ([2]; QA 0.25 μM): 1.64 ± 0.21 μg/well
- Collagen production (μg/well), AA-2G free ([2]; QA 0.25 μM): 0.64 ± 0.06 μg/well
- Collagen production (μg/well), AA-2G addition ([2]; QA 0.5 μM): 1.57 ± 0.18 μg/well
- Collagen production (μg/well), AA-2G free ([2]; QA 0.5 μM): 0.63 ± 0.07 μg/well
- Collagen production (μg/well), AA-2G addition ([2]; QA 1.0 μM): 1.03 ± 0.22 μg/well
- Collagen production (μg/well), AA-2G free ([2]; QA 1.0 μM): 0.71 ± 0.10 μg/well
- Collagen production (μg/well), AA-2G addition ([2]; QA 2.0 μM): 0.58 ± 0.06 μg/well
- Collagen production (μg/well), AA-2G free ([2]; QA 2.0 μM): 0.70 ± 0.16 μg/well

— patent publication US20100324285A1, “ANTIINFLAMMATORY AGENT COMPRISING 2-AMINOPHENOL OR DERIVATIVE THEREOF AS ACTIVE INGREDIENT” (priority 2006, published 2010)
